As a reminder, the IC50 is the concentration that inhibits the measured activity by half. The EC50 is the midpoint of the concentration-response curve.

For one assay, the target named is SARS-CoV-2 3CLP (Severe acute respiratory syndrome coronavirus 2, UniProt P0DTD1). As to the kind of experiment: SARS-CoV-2 3CLP inhibition, FRET-based cleavage assay. The format is biochemical. The note with it: 100 μM substrate, 37° C., 10 min incubation, pH 7.8.
The subject of the next assay is SARS-CoV-2. As to the kind of experiment: SARS-CoV-2 in vitro plaque reduction assay in Vero E6 cells. The format is cell-based. Particulars: Severe acute respiratory syndrome coronavirus 2, Vero C1008, MOI 0.0001 pfu/cell, plaques counted after 48 h, >5 μM = did not reduce plaque numbers by half at 10 μM, read-out: SARS-CoV-2 Antiviral EC50.
[1] abbreviates: 80 nM SARS-CoV-2 3CLP, read-out: 3CL Protease IC50.

Read-outs that look alike come from different tables or passages of the source.

On to `COc1cccc2[nH]c(C(=O)N[C@@H](CC(C)C)C(=O)N[C@@H](C[C@@H]3CCNC3=O)C(=O)COC(=O)c3c(C(F)(F)F)cccc3C(F)(F)F)cc12` [Compound 25, (3S)-3-{[N-(4-methoxy-1H-indole-2-carbonyl)-L-leucyl]amino}-2-oxo-4-[(3S)-2-oxopyrrolidin-3-yl]butyl 2,6-bis(trifluoromethyl)benzoate], for which, on SARS-CoV-2 3CLP (setting [1]), the IC50 was 18 nM. Besides, in the assay on SARS-CoV-2, the EC50 was less than 250 nM.

On to `CC(C)C[C@H](NS(=O)(=O)C1CCCCC1)C(=O)N[C@H](C#N)C[C@@H]1CCCNC1=O` [Compound 84, N-{(1S)-1-cyano-2-[(3S)-2-oxopiperidin-3-yl]ethyl}-N^2-(cyclohexanesulfonyl)-L-leucinamide], for which, at SARS-CoV-2 3CLP (setting [1]), the IC50 was found to be 3100 nM. The EC50 with SARS-CoV-2 is greater than 5000 nM.

On to `CC(C)C[C@H](NC(=O)OCC1c2ccccc2-c2ccccc21)C(=O)N[C@H](C#N)C[C@@H]1CCCNC1=O` [Compound 67, N-{(1S)-1-cyano-2-[(3S)-2-oxopiperidin-3-yl]ethyl}-N^2-{[(9H-fluoren-9-yl)methoxy]carbonyl}-L-leucinamide], for which the IC50 at SARS-CoV-2 3CLP (setting [1]) was 170 nM. Also, the EC50 in the assay with SARS-CoV-2 came to 4100 nM.

Take `Cc1ccc(S(=O)(=O)N[C@@H](CC(C)C)C(=O)N[C@H](C#N)C[C@@H]2CCCNC2=O)cn1` [Compound 85, N-{(1S)-1-cyano-2-[(3S)-2-oxopiperidin-3-yl]ethyl}-N^2-(6-methylpyridine-3-sulfonyl)-L-leucinamide]: on SARS-CoV-2 3CLP (setting [1]), the IC50 worked out at 6400 nM. For the same compound, in the assay on SARS-CoV-2, the EC50 was greater than 5000 nM.

For `CC(C)(C)C[C@H](NC(=O)c1nc2ccccc2[nH]1)C(=O)N[C@H](C#N)C[C@@H]1CCCNC1=O` [Compound 88, N-[(2S)-1-({(1S)-1-cyano-2-[(3S)-2-oxopiperidin-3-yl]ethyl}amino)-4,4-dimethyl-1-oxopentan-2-yl]-1H-benzimidazole-2-carboxamide], the concentration for half-maximal inhibition (IC50) at SARS-CoV-2 3CLP (setting [1]) is 40 nM. Moreover, in the assay with SARS-CoV-2, the EC50 is greater than 5000 nM.

With `N#C[C@H](C[C@@H]1CCNC1=O)NC(=O)[C@H](CC1CCCCC1)NC(=O)OCc1cccc(Cl)c1` [Compound 94, (3-chlorophenyl)methyl [(2S)-1-({(1S)-1-cyano-2-[(3S)-2-oxopyrrolidin-3-yl]ethyl}amino)-3-cyclohexyl-1-oxopropan-2-yl]carbamate], the IC50 at SARS-CoV-2 3CLP (setting [1]) amounted to 160 nM. In addition, in the assay with SARS-CoV-2, the EC50 was greater than 5000 nM.

For the compound `CC(C)(C)C[C@H](NC(=O)[C@H]1Cc2ccccc2N1)C(=O)N[C@H](C#N)C[C@@H]1CCCNC1=O` [Compound 102, (2R)—N-[(2S)-1-({(1S)-1-cyano-2-[(3S)-2-oxopiperidin-3-yl]ethyl}amino)-4,4-dimethyl-1-oxopentan-2-yl]-2,3-dihydro-1H-indole-2-carboxamide], the IC50 on SARS-CoV-2 3CLP (setting [1]) was 140 nM. The EC50 in the assay with SARS-CoV-2 is greater than 5000 nM.

Regarding `COc1cccc2[nH]c(C(=O)N[C@@H](CC(C)C)C(=O)N[C@@H](C[C@@H]3CCCNC3=O)C(=O)COC(=O)C3(C)COC(C)(C)OC3)cc12` [Compound 9, (3S)-3-{[N-(4-methoxy-1H-indole-2-carbonyl)-L-leucyl]amino}-2-oxo-4-[(3S)-2-oxopiperidin-3-yl]butyl 2,2,5-trimethyl-1,3-dioxane-5-carboxylate], the IC50 on SARS-CoV-2 3CLP (setting [1]) worked out at 55 nM. For the same compound, the EC50 with SARS-CoV-2 was greater than 5000 nM.

`CC(C)(C)C[C@H](NC(=O)[C@H]1Cc2ccccc2N1C(=O)OCc1ccccc1)C(=O)N[C@H](C#N)C[C@@H]1CCCNC1=O` [Compound 101, benzyl (2R)-2-{[(2S)-1-({(1S)-1-cyano-2-[(3S)-2-oxopiperidin-3-yl]ethyl}amino)-4,4-dimethyl-1-oxopentan-2-yl]carbamoyl}-2,3-dihydro-1H-indole-1-carboxylate]: the concentration for half-maximal inhibition (IC50) on SARS-CoV-2 3CLP (setting [1]) stood at 180 nM. Also, the 50% effective concentration (EC50) in the assay on SARS-CoV-2 is greater than 5000 nM.

For the compound `COc1cccc2oc(C(=O)N[C@@H](CC(C)(C)C)C(=O)N[C@H](C#N)C[C@@H]3CCCNC3=O)cc12` [Compound 93, N-[(2S)-1-({(1S)-1-cyano-2-[(3S)-2-oxopiperidin-3-yl]ethyl}amino)-4,4-dimethyl-1-oxopentan-2-yl]-4-methoxy-1-benzofuran-2-carboxamide], the IC50 at SARS-CoV-2 3CLP (setting [1]) stood at 240 nM. The EC50 in the assay on SARS-CoV-2 was greater than 5000 nM.

In the case of `COc1cccc2[nH]c(C(=O)N[C@@H](CC(C)C)C(=O)N[C@H](C#N)C[C@@H]3CCNC3=O)cc12` [Compound 24, N-[(2S)-1-({(1S)-1-cyano-2-[(3S)-2-oxopyrrolidin-3-yl]ethyl}amino)-4-methyl-1-oxopentan-2-yl]-4-methoxy-1H-indole-2-carboxamide], the EC50 in the assay with SARS-CoV-2 was greater than 5000 nM.

As to `CC(C)C[C@H](NCC1Cc2ccccc2O1)C(=O)N[C@H](C#N)C[C@@H]1CCCNC1=O` (single isomer, unassigned) [Compound 96], the IC50 on SARS-CoV-2 3CLP (setting [1]) came to 46000 nM. Moreover, the EC50 in the assay with SARS-CoV-2 was greater than 5000 nM.

Take `COc1cccc2[nH]c(C(=O)N[C@@H](CC(C)C)C(=O)N[C@@H](C[C@@H]3CCCNC3=O)C(=O)COC(=O)c3c(C)nc(C)nc3C)cc12` [Compound 72, 3-{[N-(4-methoxy-1H-indole-2-carbonyl)leucyl]amino}-2-oxo-4-(2-oxopiperidin-3-yl)butyl 2,4,6-trimethylpyrimidine-5-carboxylate]: on SARS-CoV-2 3CLP (setting [1]), the IC50 was determined as 22 nM.

Consider `CC(C)(C)C[C@H](NC(=O)[C@@H]1CCCN1C(=O)OCc1ccccc1)C(=O)N[C@H](C#N)C[C@@H]1CCCNC1=O` [Compound 89, 1-[(benzyloxy)carbonyl]prolyl-N-{(1S)-1-cyano-2-[(3S)-2-oxopiperidin-3-yl]ethyl}-4-methyl-L-leucinamide], for which, at SARS-CoV-2 3CLP (setting [1]), the IC50 was found to be 2800 nM. The 50% effective concentration (EC50) in the assay on SARS-CoV-2 is greater than 5000 nM.

In the case of `COc1cccc2[nH]c(C(=O)N[C@@H](CC(C)C)C(=O)N[C@@H](C[C@@H]3CCCNC3=O)C(=O)COC(=O)C3(C#N)CCCC3)cc12` [Compound 19, (3S)-3-{[N-(4-methoxy-1H-indole-2-carbonyl)-L-leucyl]amino}-2-oxo-4-[(3S)-2-oxopiperidin-3-yl]butyl 1-cyanocyclopentane-1-carboxylate], the IC50 on SARS-CoV-2 3CLP (setting [1]) was determined as 26 nM. In addition, the EC50 with SARS-CoV-2 was greater than 5000 nM.

As to `[2H]C1([2H])CC[C@@H](C[C@@H](C#N)NC(=O)[C@H](CC(C)(C)C)NC(=O)c2cc3c(OC)cccc3[nH]2)C(=O)N1` [Compound 104, N-[(2S)-1-({(1S)-1-cyano-2-[(3S)-2-oxo(6,6-d2)piperidin-3-yl]ethyl}amino)-4,4-dimethyl-1-oxopentan-2-yl]-4-methoxy-1H-indole-2-carboxamide], the EC50 with SARS-CoV-2 is greater than 5000 nM.

As for `COc1cccc2[nH]c(C(=O)N[C@@H](CC(C)C)C(=O)N[C@@H](C[C@@H]3CCCNC3=O)C(=O)COC(=O)C3(C(F)(F)F)CC3)cc12` [Compound 15, (3S)-3-{[N-(4-methoxy-1H-indole-2-carbonyl)-L-leucyl]amino}-2-oxo-4-[(3S)-2-oxopiperidin-3-yl]butyl 1-(trifluoromethyl)cyclopropane-1-carboxylate], the IC50 on SARS-CoV-2 3CLP (setting [1]) worked out at 41 nM. For the same compound, the EC50 with SARS-CoV-2 is greater than 5000 nM.

Turning to `CC(C)C[C@H](NC(=O)[C@H]1CCCO1)C(=O)N[C@H](C#N)C[C@@H]1CCCNC1=O` [Compound 80, N-{(1S)-1-cyano-2-[(3S)-2-oxopiperidin-3-yl]ethyl}-N^2-[(2R)-oxolane-2-carbonyl]-L-leucinamide], the IC50 at SARS-CoV-2 3CLP (setting [1]) worked out at 710 nM. For the same compound, the EC50 in the assay on SARS-CoV-2 was greater than 5000 nM.

In the case of `COc1nccc2[nH]c(C(=O)N[C@@H](CC(C)(C)C)C(=O)N[C@H](C#N)C[C@@H]3CCCNC3=O)cc12` [Compound 99, N-[(2S)-1-({(1S)-1-cyano-2-[(3S)-2-oxopiperidin-3-yl]ethyl}amino)-4,4-dimethyl-1-oxopentan-2-yl]-4-methoxy-1H-pyrrolo[3,2-c]pyridine-2-carboxamide], the IC50 on SARS-CoV-2 3CLP (setting [1]) is 22 nM. Further, the EC50 in the assay with SARS-CoV-2 was greater than 5000 nM.

Take `COc1cccc2[nH]c(C(=O)N[C@@H](CC(C)C)C(=O)N[C@@H](C[C@@H]3CCCNC3=O)C(=O)COC(=O)c3ccccc3)cc12` [Compound 2, (3S)-3-{[N-(4-methoxy-1H-indole-2-carbonyl)-L-leucyl]amino}-2-oxo-4-[(3S)-2-oxopiperidin-3-yl]butyl benzoate]: the IC50 on SARS-CoV-2 3CLP (setting [1]) was found to be 64 nM. The EC50 with SARS-CoV-2 was greater than 5000 nM.

On to `COc1cccc2[nH]c(C(=O)N[C@@H](CC(C)C)C(=O)N[C@@H](C[C@@H]3CCCNC3=O)C(=O)COC(=O)c3ccncc3)cc12` [Compound 8, (3S)-3-{[N-(4-methoxy-1H-indole-2-carbonyl)-L-leucyl]amino}-2-oxo-4-[(3S)-2-oxopiperidin-3-yl]butyl pyridine-4-carboxylate], for which the EC50 with SARS-CoV-2 is greater than 5000 nM.

With `COc1cccc2[nH]c(C(=O)N[C@@H](CC(C)C)C(=O)N[C@@H](C[C@@H]3CCNC3=O)C(=O)COC(=O)c3c(C(F)(F)F)cc(C)nc3C)cc12` [Compound 26, (3S)-3-{[N-(4-methoxy-1H-indole-2-carbonyl)-L-leucyl]amino}-2-oxo-4-[(3S)-2-oxopyrrolidin-3-yl]butyl 2,6-dimethyl-4-(trifluoromethyl)pyridine-3-carboxylate], the half-inhibitory concentration (IC50) at SARS-CoV-2 3CLP (setting [1]) came out at 17 nM.

Consider `COc1cccc2[nH]c(C(=O)N[C@@H](CC(C)C)C(=O)N[C@@H](C[C@@H]3CCCNC3=O)C(=O)COC(=O)c3c(C)cc(C)nc3C)cc12` [Compound 23, (3S)-3-{[N-(4-methoxy-1H-indole-2-carbonyl)-L-leucyl]amino}-2-oxo-4-[(3S)-2-oxopiperidin-3-yl]butyl 2,4,6-trimethylpyridine-3-carboxylate], for which 36 nM corresponded to half-maximal inhibition against SARS-CoV-2 3CLP (3CL Protease IC50, 80 nM SARS-CoV-2 3CLP) (IC50).

On to `COc1cccc2[nH]c(C(=O)N[C@@H](CC(C)C)C(=O)N[C@@H](C[C@@H]3CCCNC3=O)C(=O)COC(=O)c3c(F)c(F)c(F)c(F)c3F)cc12` [Compound 7, (3S)-3-{[N-(4-methoxy-1H-indole-2-carbonyl)-L-leucyl]amino}-2-oxo-4-[(3S)-2-oxopiperidin-3-yl]butyl pentafluorobenzoate], for which the EC50 with SARS-CoV-2 was greater than 5000 nM.
